What was measured:
[1] = target: Transient receptor potential cation channel subfamily V member 1 (Homo sapiens, UniProt Q8NER1); assay: Agonist activity at ionomycin-stimulated TRPV1 (unknown origin) channel desensitization in presence of capsaicin
[2] = target: Transient receptor potential cation channel subfamily A member 1 (Homo sapiens, UniProt O75762); assay: Agonist activity at TRPA1 (unknown origin) activation assessed as efficacy relative to control; details: filed as agonist
Cytochrome P450 2D6 [3] = target: T1, Cytochrome P450 2D6 (Homo sapiens, UniProt P10635); assay: Inhibition of CYP2D6 in human liver microsomes by measuring inhibition constant in presence of NADPH-generating system incubated for 20 mins; type: ADME, Microsome
T1 sequence (P10635 whole entry): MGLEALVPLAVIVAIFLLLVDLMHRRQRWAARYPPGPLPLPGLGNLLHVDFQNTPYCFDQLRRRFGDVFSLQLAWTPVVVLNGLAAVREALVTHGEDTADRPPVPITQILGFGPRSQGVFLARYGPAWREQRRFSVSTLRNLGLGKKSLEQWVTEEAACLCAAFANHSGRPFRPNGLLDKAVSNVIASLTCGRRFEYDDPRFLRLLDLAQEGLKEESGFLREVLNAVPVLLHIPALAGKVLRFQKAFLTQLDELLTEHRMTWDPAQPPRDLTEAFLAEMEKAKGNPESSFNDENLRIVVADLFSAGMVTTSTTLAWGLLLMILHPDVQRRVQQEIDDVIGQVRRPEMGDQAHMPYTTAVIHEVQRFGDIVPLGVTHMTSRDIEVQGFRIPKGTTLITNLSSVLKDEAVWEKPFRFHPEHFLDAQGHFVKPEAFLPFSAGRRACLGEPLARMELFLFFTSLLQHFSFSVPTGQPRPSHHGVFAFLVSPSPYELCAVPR

[4] = target: T2, Transient receptor potential cation channel subfamily V member 2 (Homo sapiens, UniProt Q9Y5S1); assay: Agonist activity at ionomycin-stimulated TRPV2 (unknown origin) activation
T2 sequence (Q9Y5S1 whole entry): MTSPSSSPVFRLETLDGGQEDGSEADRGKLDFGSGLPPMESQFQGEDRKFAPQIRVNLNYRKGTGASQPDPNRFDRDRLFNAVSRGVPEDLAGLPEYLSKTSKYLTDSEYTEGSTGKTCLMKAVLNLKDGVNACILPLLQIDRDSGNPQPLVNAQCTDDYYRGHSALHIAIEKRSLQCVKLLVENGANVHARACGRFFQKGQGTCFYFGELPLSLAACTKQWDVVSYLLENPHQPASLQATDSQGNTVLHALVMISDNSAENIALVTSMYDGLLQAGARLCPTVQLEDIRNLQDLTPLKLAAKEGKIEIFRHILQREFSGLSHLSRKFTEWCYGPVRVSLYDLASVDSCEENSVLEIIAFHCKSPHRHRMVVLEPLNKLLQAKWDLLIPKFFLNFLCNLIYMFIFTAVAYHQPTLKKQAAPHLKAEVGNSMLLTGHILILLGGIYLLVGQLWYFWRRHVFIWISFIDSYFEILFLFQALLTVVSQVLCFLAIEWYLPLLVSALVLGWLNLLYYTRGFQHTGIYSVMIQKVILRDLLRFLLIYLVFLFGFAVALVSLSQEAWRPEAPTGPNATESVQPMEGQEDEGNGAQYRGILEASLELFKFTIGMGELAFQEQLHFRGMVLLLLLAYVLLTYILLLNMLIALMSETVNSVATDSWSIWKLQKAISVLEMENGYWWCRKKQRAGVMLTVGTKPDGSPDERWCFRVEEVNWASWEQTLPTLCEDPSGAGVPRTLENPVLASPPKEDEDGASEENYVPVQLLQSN

[5] = target: T3, Transient receptor potential cation channel subfamily V member 4 (Homo sapiens, UniProt Q9HBA0); assay: Agonist activity at ionomycin-stimulated TRPV4 (unknown origin) activation
T3 sequence (Q9HBA0 whole entry): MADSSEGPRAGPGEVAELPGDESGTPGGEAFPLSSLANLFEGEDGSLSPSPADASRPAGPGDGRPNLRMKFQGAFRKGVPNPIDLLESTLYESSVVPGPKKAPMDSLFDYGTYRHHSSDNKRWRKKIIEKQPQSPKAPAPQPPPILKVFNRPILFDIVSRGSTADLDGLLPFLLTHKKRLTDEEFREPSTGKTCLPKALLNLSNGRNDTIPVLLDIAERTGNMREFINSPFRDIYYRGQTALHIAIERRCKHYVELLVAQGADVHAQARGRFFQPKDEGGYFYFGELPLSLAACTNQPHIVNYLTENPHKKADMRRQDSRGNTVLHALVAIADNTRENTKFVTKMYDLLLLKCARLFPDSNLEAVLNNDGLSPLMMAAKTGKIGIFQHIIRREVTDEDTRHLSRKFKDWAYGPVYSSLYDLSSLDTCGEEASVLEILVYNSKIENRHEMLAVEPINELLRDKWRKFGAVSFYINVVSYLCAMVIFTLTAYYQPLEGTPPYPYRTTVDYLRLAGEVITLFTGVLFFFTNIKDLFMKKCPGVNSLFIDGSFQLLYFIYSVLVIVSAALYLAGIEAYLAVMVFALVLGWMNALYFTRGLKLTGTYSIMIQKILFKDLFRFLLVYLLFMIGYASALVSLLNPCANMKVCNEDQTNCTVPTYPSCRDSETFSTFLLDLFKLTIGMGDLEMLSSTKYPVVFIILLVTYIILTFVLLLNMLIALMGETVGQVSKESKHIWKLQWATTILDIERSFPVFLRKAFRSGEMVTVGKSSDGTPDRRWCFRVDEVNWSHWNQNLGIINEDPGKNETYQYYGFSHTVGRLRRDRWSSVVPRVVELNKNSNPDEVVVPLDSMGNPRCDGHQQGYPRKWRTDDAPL

[6] = target: Transient receptor potential cation channel subfamily M member 8 (Homo sapiens, UniProt Q7Z2W7); assay: Antagonist activity at TRPM8 (unknown origin) desensitization in presence of icilin
Sequence of Transient receptor potential cation channel subfamily M member 8 (Q7Z2W7 whole entry): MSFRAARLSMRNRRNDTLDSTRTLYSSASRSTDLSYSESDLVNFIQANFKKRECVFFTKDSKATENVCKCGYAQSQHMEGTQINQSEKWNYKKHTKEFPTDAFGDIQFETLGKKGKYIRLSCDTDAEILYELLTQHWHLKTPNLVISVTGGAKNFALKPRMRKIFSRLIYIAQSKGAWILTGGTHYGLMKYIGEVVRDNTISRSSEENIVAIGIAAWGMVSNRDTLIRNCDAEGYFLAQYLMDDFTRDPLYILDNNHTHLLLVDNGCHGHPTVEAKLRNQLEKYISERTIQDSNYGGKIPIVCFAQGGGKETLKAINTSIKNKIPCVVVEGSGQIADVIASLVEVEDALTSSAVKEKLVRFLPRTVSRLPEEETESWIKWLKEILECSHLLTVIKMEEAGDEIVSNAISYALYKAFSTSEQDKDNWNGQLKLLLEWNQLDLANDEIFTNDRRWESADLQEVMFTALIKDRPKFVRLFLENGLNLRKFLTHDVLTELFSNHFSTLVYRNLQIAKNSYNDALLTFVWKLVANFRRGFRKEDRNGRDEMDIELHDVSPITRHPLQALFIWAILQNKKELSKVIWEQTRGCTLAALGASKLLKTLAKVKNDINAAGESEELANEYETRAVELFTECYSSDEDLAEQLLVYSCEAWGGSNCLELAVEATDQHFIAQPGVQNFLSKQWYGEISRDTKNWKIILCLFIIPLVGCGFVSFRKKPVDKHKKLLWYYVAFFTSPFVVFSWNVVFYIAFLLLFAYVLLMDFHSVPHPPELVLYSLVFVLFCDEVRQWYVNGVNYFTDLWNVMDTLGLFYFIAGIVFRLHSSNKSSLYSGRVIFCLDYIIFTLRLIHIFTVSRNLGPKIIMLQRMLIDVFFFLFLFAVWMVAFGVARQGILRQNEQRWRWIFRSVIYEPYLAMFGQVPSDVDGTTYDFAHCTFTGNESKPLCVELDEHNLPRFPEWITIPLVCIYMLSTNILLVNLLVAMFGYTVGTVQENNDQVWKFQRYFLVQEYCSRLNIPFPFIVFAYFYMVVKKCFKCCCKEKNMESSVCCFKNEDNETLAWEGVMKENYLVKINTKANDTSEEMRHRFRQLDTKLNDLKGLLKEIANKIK

[7] = target: T2, Transient receptor potential cation channel subfamily V member 2; assay: Agonist activity at ionomycin-stimulated TRPV2 (unknown origin) channel desensitization in presence of lysophosphatidylcholine
[8] = target: T3, Transient receptor potential cation channel subfamily V member 4; assay: Agonist activity at ionomycin-stimulated TRPV4 (unknown origin) activation assessed as efficacy relative to control
[9] = target: T3, Transient receptor potential cation channel subfamily V member 4; assay: Agonist activity at ionomycin-stimulated TRPV4 (unknown origin) channel desensitization in presence of 4alphaPDD
Cytochrome P450 2D6 [10] = target: T1, Cytochrome P450 2D6; assay: Inhibition of CYP2D6 in human liver microsomes in presence of NADPH-generating system incubated for 20 mins; type: ADME, Microsome
[11] = target: T4, Transient receptor potential cation channel subfamily V member 3 (Homo sapiens, UniProt Q8NET8); assay: Agonist activity at ionomycin-stimulated TRPV3 (unknown origin) channel desensitization in presence of carvacrol
T4 sequence (Q8NET8 whole entry): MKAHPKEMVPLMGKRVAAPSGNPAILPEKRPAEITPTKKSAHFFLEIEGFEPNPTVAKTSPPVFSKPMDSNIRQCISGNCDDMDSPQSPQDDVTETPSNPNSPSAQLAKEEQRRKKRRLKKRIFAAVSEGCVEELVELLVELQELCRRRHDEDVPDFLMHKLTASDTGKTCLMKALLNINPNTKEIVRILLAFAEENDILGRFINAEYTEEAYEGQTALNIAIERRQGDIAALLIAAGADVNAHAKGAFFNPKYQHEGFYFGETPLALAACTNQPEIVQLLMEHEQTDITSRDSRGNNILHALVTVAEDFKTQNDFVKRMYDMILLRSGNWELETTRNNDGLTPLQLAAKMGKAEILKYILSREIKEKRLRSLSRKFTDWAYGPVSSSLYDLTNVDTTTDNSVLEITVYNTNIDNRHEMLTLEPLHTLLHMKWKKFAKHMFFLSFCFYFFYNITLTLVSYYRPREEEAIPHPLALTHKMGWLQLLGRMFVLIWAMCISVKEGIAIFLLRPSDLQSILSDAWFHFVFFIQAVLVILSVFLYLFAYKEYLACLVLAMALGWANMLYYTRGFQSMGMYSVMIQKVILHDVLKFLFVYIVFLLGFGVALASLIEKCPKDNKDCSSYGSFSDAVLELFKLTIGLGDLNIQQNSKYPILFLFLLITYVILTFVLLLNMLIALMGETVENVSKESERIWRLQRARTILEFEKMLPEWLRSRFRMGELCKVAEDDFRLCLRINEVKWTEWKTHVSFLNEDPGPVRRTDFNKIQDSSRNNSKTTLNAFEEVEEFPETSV

Cytochrome P450 2C19 = Cytochrome P450 2C19 (Homo sapiens, UniProt P33261); assay: Mixed inhibition of CYP2C19 (unknown origin); type: ADME
Sequence of Cytochrome P450 2C19 (P33261 whole entry): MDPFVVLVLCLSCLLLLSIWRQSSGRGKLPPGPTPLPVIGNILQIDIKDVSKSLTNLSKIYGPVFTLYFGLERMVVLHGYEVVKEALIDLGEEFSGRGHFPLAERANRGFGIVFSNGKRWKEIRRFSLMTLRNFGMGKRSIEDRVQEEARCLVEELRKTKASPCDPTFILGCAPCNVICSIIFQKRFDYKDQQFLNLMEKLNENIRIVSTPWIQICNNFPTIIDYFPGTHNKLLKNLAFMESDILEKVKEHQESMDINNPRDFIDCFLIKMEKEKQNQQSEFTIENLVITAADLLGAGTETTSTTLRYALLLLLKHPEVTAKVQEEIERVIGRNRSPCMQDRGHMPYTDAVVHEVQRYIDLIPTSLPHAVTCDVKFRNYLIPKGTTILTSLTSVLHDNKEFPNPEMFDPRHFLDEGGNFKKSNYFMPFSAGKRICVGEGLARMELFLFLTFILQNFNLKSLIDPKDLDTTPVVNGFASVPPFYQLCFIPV

Cytochrome P450 1A1 = Cytochrome P450 1A1 (Homo sapiens, UniProt P04798); assay: Inhibition of human recombinant CYP1A1 preincubated with NADPH for 20 mins and measured after 30 min by Lineweaver-burk plots analysis; type: ADME
Cytochrome P450 2B6 = target: T5, Cytochrome P450 2B6 (Homo sapiens, UniProt P20813); assay: Mixed inhibition of recombinant CYP2B6 (unknown origin) using coumarin as substrate in presence of NADPH-generating system; type: ADME
T5 sequence (P20813 whole entry): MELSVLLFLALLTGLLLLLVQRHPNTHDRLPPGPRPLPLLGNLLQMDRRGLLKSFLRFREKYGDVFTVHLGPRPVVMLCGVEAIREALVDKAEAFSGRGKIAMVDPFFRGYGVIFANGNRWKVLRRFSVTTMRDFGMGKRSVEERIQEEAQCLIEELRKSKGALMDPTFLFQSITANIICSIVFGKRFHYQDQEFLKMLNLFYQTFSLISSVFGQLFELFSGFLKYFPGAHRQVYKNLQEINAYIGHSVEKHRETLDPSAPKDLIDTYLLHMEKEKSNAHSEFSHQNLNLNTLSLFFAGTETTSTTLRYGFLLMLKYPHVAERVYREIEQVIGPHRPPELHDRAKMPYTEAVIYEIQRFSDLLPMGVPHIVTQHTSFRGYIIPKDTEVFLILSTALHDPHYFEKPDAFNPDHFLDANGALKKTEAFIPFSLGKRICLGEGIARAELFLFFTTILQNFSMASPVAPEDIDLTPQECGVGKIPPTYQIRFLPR

[12] = target: T6, Transient receptor potential cation channel subfamily V member 2 (Homo sapiens) (UniProt Q9Y5S1); assay: Agonist activity at ionomycin-stimulated TRPV2 (unknown origin) activation assessed as efficacy relative to control; details: filed as agonist
T6 sequence (whole entry): T2 sequence (Q9Y5S1 whole entry)

Sequence of Transient receptor potential cation channel subfamily V member 1 (Q8NER1 whole entry): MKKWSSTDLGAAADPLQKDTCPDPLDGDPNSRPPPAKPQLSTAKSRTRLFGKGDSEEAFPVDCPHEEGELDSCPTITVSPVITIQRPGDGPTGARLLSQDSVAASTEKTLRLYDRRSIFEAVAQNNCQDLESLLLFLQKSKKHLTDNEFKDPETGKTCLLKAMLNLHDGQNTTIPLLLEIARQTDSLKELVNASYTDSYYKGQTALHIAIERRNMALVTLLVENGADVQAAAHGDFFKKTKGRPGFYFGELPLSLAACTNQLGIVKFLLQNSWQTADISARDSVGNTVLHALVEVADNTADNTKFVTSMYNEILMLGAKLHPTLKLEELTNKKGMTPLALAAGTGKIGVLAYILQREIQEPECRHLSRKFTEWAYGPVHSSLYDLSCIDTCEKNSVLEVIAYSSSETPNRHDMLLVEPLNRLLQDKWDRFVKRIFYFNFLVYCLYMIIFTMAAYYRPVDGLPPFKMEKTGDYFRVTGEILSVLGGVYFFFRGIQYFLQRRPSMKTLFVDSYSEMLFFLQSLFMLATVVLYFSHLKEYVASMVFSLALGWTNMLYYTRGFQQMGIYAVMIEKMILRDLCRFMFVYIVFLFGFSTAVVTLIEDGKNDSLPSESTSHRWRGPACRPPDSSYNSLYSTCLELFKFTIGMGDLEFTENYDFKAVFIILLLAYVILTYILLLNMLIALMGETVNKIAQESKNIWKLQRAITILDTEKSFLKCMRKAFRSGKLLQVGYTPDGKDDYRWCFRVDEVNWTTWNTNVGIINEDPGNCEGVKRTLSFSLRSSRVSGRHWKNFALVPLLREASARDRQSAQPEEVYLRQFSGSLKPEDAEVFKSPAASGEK
Sequence of Transient receptor potential cation channel subfamily A member 1 (O75762 whole entry): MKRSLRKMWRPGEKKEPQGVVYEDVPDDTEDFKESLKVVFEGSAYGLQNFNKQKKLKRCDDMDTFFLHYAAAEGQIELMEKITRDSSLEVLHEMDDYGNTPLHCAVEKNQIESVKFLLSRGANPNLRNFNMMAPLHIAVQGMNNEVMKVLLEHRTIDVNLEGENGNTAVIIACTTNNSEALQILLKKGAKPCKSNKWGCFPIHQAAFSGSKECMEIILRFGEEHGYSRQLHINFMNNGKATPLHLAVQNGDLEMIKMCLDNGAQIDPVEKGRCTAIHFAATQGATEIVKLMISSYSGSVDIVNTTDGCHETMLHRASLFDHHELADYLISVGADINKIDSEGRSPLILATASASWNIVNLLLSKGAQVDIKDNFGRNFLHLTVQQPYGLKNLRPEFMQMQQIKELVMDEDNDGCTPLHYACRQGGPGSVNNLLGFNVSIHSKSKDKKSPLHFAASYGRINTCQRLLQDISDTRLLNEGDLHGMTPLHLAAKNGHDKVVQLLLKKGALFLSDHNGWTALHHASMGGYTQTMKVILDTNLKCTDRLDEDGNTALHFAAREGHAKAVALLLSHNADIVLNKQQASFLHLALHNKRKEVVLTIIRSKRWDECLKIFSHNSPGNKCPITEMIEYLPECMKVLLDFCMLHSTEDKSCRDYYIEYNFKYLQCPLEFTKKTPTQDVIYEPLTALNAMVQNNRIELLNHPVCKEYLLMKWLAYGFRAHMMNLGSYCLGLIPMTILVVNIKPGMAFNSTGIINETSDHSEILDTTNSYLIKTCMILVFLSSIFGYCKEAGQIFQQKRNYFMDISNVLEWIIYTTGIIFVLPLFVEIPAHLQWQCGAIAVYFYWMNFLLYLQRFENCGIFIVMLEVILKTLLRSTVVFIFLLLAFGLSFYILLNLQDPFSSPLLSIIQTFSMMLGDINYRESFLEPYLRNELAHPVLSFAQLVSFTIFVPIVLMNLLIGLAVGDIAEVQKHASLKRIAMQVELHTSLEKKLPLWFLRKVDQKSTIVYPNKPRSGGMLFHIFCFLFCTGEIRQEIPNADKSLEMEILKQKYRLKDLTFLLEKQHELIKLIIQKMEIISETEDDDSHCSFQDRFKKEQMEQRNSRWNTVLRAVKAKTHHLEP

`C=C(C)[C@@H]1CCC(C)=C[C@H]1c1c(O)cc(CCC)cc1O` [CANNABIDIVARIN] was tested, and the IC50 [1] was 10 µM, the Efficacy [2] was 105% and the Ki (Cytochrome P450 2D6 [3]) was 5.8 µM. It also gave an EC50 [4] of 7.3 µM, an EC50 [5] of 0.9 µM and an IC50 [6] of 0.9 µM. For the same molecule, the IC50 [7] was 31 µM, the Efficacy [8] was 30% and the IC50 [9] was 2.9 µM. For the same molecule, the IC50 (Cytochrome P450 2D6 [10]) was 10.2 µM, the IC50 [11] was 25 µM and the IC50 (Cytochrome P450 2C19) was 3.7 µM. The Ki (Cytochrome P450 1A1) was 1.6 µM, the IC50 (Cytochrome P450 2B6) was 7.4 µM and the Efficacy [12] was 50%.

Source: ChEMBL document CHEMBL5096151, “Phytocannabinoid Pharmacology: Medicinal Properties of Cannabis sativa Constituents Aside from the "Big Two"” (J Nat Prod, 2021)
